{"source": "patent US12533341B2", "about": "“Small molecule inhibitors of voltage-gated sodium channel 1.7 and methods of using same” (Duke University, priority 2019, dated 2026)", "key": {"[1]": {"tested_on": "histamine-induced acute itch", "assay": "Histamine-induced itch model", "assay_type": "in vivo, mouse", "conditions": "listed as DA-0218", "method": "Itch behavior was tested blindly. Mice were habituated to the testing environment daily for at least two days before testing. Animals were shaved at the back of the neck in an area of approximately 15×10 mm on the day before the injection of pruritic agent. Animals were put in small plastic chambers (14×18×12 cm) on an elevated metal mesh floor and allowed 30 min for habituation before examination. Mice were then briefly removed from the chamber and given an intradermal injection (50 μL) of 500 μg of histamine in the nape of the neck. After the injection, mouse behaviors were video-recorded and the number of scratches in every 5 min for 30 min was counted. A scratch was counted when a mouse lifted its hindpaw to scratch the shaved region and returned the paw to the floor or to the mouth."}, "[2]": {"tested_on": "mouse dorsal root ganglion (DRG) neurons", "assay": "Patch-clamp of transient sodium currents in mouse DRG neurons (naive and paclitaxel-pretreated)", "assay_type": "cell-based", "conditions": "for inhibition at 10 µM: Mus musculus, DRG neuron", "method": "Mouse DRGs were removed aseptically from mice (4-6 weeks) and incubated with collagenase (1.25 mg/mL, Roche)/dispase-II (2.4 units/mL, Roche) in HBSS buffer at 37° C. for 90 min. Cells were mechanically dissociated with a flame polished Pasteur pipette in the presence of 0.05% DNAse I (Sigma). DRG cells were plated on 0.5 mg/mL poly-D-lysine-coated glass cover slips and grown in a neurobasal defined medium (with 10% FBS, 2% B27 supplement, Invitrogen) with 5 μM AraC and 5% carbon dioxide at 36.5° C. DRG neurons were grown for 24 hours before use. Patch clamp recordings were conducted in small-diameter (<25 μm) DRG neurons.\nWhole-cell patch-clamp recordings were conducted at room temperature. Patch pipettes pulled from borosilicate capillaries (World Precision Instruments, Inc., Sarasota, FL) were used to record transient Na currents with an Axopatch-200B amplifier with a Digidata 1440A (Axon Instruments, Sunnyvale CA). The resistance was set to 3-4 MΩ when filled with pipette solution. The pipette solution contained (in mmol/L): CsCl 130, NaCl 9, MgCl2 1, EGTA 10, HEPES 10, adjusted to pH 7.3 with CsOH. The external solution for recording transient Na^+ currents contained (in mmol/L): NaCl 131, TEACl 10, CsCl 10, CaCl2) 1, MgCl2 2, CdCl2 0.3, 4-aminopyridine 3, HEPES 10, glucose 10, adjusted to pH 7.4 with NaOH. The recording chamber (300 μL) was continuously superfused at 3-4 mL/min. Series resistance was compensated (>80%) and leak subtraction was performed. Data were low-pass-filtered at 2 kHz and sampled at 10 kHz. pClamp10 (Axon Instruments) software was used during experiments and analysis. In voltage-clamp experiments, transient Na+ currents were evoked by a test pulse to 0 mV from the holding potential (−70 mV)."}, "[3]": {"tested_on": "human dorsal root ganglion (DRG) neurons", "assay": "Patch-clamp of transient sodium currents in human DRG neurons", "assay_type": "cell-based", "method": "Non-diseased human DRGs were obtained from donors through NDRI with permission of exemption from Duke IRB. Postmortem L3-L5 DRGs were dissected and delivered in ice-cold culture medium to the laboratory at Duke University within 24-72 hours of donor's death. Upon the delivery, DRGs were rapidly dissected from nerve roots and minced in a calcium-free HBSS (Gibco). DRGs were digested at 37° C. in a humidified 02 incubator for 120 min with collagenase Type II (Worthington, 285 units/mg, 12 mg/mL final concentration) and dispase II (Roche, 1 unit/mg, 20 mg/mL) in HBSS buffer. DRGs were mechanically dissociated using fire-polished pipettes, filtered through a […] nylon mesh and centrifuged (500×g for 5 min). The pellet was resuspended, plated on 0.5 mg/mL poly-D-lysine-coated glass coverslips, and cells were grown in Neurobasal medium supplemented with 10% FBS, 2% B-27 supplement, and 1% penicillin/streptomycin. Patch clamp recordings were conducted in small-diameter (<55 μm) DRG neurons (PMID: 26479925).\nWhole-cell patch-clamp recordings were conducted at room temperature. Patch pipettes pulled from borosilicate capillaries (World Precision Instruments, Inc., Sarasota, FL) were used to record transient Na currents with an Axopatch-200B amplifier with a Digidata 1440A (Axon Instruments, Sunnyvale CA). The resistance was set to 3-4 MΩ when filled with pipette solution. […]"}}, "note": "“Also recorded” adds a separate entry of the source. Read-outs that look alike come from different tables or passages of the source.", "data": [{"smiles": "O=C(CC(c1cccc(Oc2ccccc2)c1)c1cn(Cc2ccccc2)c2ccccc12)NCCN1CCCC1", "note": "(stereo not drawn) [Compound 9, 3-(1-benzyl-1H-indol-3-yl)-3-(3-phenoxyphenyl)-N-(2-(pyrrolidin-1-yl)ethyl)propanamide]", "values": [{"measurement": "effect on histamine-induced scratches", "setting": "[1]; intrathecal 30 nmol, 500 μg histamine intradermal, 30 min", "result": "statistically significant reduction; also recorded: effective against histamine-induced itch"}, {"measurement": "effect on histamine-induced scratch bouts", "setting": "[1]; intrathecal, dose response", "result": "inhibited histamine-induced acute itch; also recorded: dose-dependent reduction"}, {"measurement": "time to peak inhibition after the drug incubation", "setting": "[2]; 10 μM, mouse DRG neurons", "result": 10, "unit": "min"}, {"measurement": "inhibition at 10 µM", "setting": "[2]; 10 μM, naive (non-treated) mouse DRG neurons, read-out: inhibition of peak INaT (sodium currents)", "result": 17, "unit": "%"}, {"measurement": "inhibition at 10 µM", "setting": "[2]; 10 μM, paclitaxel pretreated mouse DRG neurons, read-out: inhibition of sodium currents", "result": 44, "unit": "%"}, {"measurement": "mean relative current at the last measurement", "setting": "[2]; mouse DRG neurons, naive", "result": "72 % of the baseline"}, {"measurement": "mean relative current at the last measurement", "setting": "[2]; mouse DRG neurons, paclitaxel-treated", "result": "43 % of the baseline"}, {"measurement": "mean relative current at the last measurement", "setting": "[3]", "result": "73 % of the baseline"}, {"measurement": "relative current difference (inhibition of peak INaT)", "setting": "[3]; 10 uM", "result": 0.22}]}]}
